Results as given in patent US20240116985A1, “STAPLED PEPTIDES AND METHODS THEREOF” (priority 2020, published 2024).
In brackets after ≈: the same amount, converted by molar mass. Several values for one entry are separate records, joined by “and”; a condition that tells them apart may be missing. Equal values may be shown once. Read-outs that look alike come from different tables or passages of the source.

Legend:
[1] = target: T1, full-length beta-Catenin (Uniprot ID P35222) (Homo sapiens, UniProt P35222); experiment: Fluorescence polarization IC50 (beta-catenin / 5FAM-TCF4 10-53 competition); type: binding; settings: read-out: beta-Catenin FP IC50
T1 construct: 10 nM full-length beta-Catenin (Uniprot ID P35222)
T1 sequence (P35222 1-781): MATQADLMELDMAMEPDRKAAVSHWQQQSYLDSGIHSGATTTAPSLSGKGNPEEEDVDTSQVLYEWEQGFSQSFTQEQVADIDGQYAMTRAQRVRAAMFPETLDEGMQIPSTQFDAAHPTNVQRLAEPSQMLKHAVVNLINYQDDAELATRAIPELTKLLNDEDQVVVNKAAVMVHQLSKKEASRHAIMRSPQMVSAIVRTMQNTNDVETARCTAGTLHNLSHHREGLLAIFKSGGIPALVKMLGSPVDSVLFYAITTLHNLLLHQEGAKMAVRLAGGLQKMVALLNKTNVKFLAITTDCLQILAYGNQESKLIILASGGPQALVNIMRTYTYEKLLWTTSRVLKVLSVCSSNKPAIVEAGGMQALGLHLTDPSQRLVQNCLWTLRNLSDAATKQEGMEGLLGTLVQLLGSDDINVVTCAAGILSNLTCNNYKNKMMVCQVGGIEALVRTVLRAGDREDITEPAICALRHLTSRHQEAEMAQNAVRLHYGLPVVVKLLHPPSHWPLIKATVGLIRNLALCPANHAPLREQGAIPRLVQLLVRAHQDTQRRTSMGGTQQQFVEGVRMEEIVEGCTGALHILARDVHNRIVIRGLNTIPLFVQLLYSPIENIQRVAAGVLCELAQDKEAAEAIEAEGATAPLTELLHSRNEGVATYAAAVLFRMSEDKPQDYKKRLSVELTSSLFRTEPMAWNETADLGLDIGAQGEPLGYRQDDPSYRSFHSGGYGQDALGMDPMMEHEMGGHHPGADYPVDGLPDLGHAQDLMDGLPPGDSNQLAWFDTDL

CHI Log D procedure = type: physicochemical; settings: pH 7.4, CHI Log D
Solubility in PBS = type: physicochemical; settings: Solubility (uM)
Procedure, shortened: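 Solubility is derived from HPLC peak areas: the ratio of the PBS supernatant peak to a 50 μM DMSO peptide peak, times 50 uM.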

[2] = system: TCF/LEF luciferase Reporter in DLD1 cells; experiment: TCF reporter assay (DLD1 TCF/LEF luciferase reporter, Bright-Glo); type: cell-based; settings: for DLD1 TCF c2 BrightGlo % Inhibition: replicates
Procedure, shortened: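 DLD1 cells stably carrying a TCF/LEF luciferase reporter were plated at 5000 cells/well in RPMI + 4% FBS and treated overnight with a 1:2 compound dilution series. Bright-Glo luminescence read on day 3; viability by CellTiter-Glo. Absolute IC50 determined.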

[3] = target: T2, beta-catenin/TCF4 engagement (Homo sapiens, UniProt P35222); experiment: Nano-BRET target engagement assay (B-cat-Halo & TCF4-Luc in HEK293 cells); type: cell-based; settings: absolute IC50; read-out: NanoBRET Abs IC50
T2 construct: expressed in transfected cells; host or cells: HEK293
T2 sequence (P35222 1-781): T1 sequence (P35222 1-781)

[4] = absolute IC50, read-out: DLD1 reporter assay Abs IC50
[5] = read-out: DLD1 4% Abs IC50, DLD1 4%
[6] = first dose = 20 uM (plate map), 20 µM
[7] = third dose = 5 uM (plate map), 5 µM

Structure (SMILES)	IC50 [1] [µM]	chromatographic logD (CHI Log D procedure)	Solubility (Solubility in PBS) [µM]	IC50 [2, 4] [µM]	IC50 [3] [µM]	IC50 [2, 5] [µM]	DLD1 TCF c2 BrightGlo % Inhibition [2, 6]	DLD1 TCF c2 BrightGlo % Inhibition ([2]; 0.625 µM)	DLD1 TCF c2 BrightGlo % Inhibition ([2]; 1.25 µM)	DLD1 TCF c2 BrightGlo % Inhibition ([2]; 2.5 µM)	DLD1 TCF c2 BrightGlo % Inhibition ([2]; 10 µM)	DLD1 TCF c2 BrightGlo % Inhibition [2, 7]
CC(=O)N1CCC[C@]12CC=CCCCC1(CCCC=CCCCOC(=O)N3CC[C@@](C(=O)N[C@@H](Cc4ccccc4Cl)C(=O)N[C@@H](Cc4csc5ccccc45)C(=O)N[C@@H](C(N)=O)[C@H](C)O)(C3)NC(=O)[C@H](CC(N)=O)NC(=O)[C@H](Cc3ccccc3)NC(=O)[C@H](C)NC(=O)[C@H](C)NC(=O)[C@H](CC(=O)O)NC(=O)[C@H](CC(=O)O)NC1=O)NC(=O)[C@H](CC(C)(C)C)NC(=O)[C@H](CCC(=O)O)NC2=O (stereo partly drawn) [I-1029, Ac-PL3-Glu-Npg-B5-Asp-Asp-Ala-Ala-Phe-Asn-PyrS2-2C1F-BztA-dThr-NH2]	0.823	2.36	49 (≈ 94.7 µg/mL)	> 20	> 20							
CC(=O)N1CCC[C@]12CC=CCCCC1(CCCC=CCCCOC(=O)N3CC[C@@](C(=O)N[C@@H](Cc4ccccc4Cl)C(=O)N[C@@H](Cc4csc5ccccc45)C(=O)N[C@@H](C(N)=O)[C@H](C)O)(C3)NC(=O)[C@H](CC(N)=O)NC(=O)[C@H](Cc3ccccc3)NC(=O)[C@H](C)NC(=O)[C@H](C)NC(=O)[C@H](CC(=O)O)NC(=O)[C@H](CCC(=O)O)NC1=O)NC(=O)[C@H](CC(C)(C)C)NC(=O)[C@H](CC(=O)O)NC2=O (stereo partly drawn) [I-1030, Ac-PL3-Asp-Npg-B5-Glu-Asp-Ala-Ala-Phe-Asn-PyrS2-2C1F-BztA-dThr-NH2]	0.507	2.76	47 (≈ 90.9 µg/mL)	> 20	> 20							
CC(=O)N1CCC[C@]12CC=CCCCC1(CCCC=CCCCOC(=O)N3CC[C@@](C(=O)N[C@@H](Cc4ccccc4Cl)C(=O)N[C@@H](Cc4csc5ccccc45)C(=O)N[C@@H](C(N)=O)[C@H](C)O)(C3)NC(=O)[C@H](Cc3ccccc3)NC(=O)[C@H](Cc3ccccc3)NC(=O)[C@H](C)NC(=O)[C@H](C)NC(=O)[C@H](CC(=O)O)NC(=O)[C@H](CC(=O)O)NC1=O)NC(=O)[C@H](CC(C)(C)C)NC(=O)[C@H](CC(=O)O)NC2=O (stereo partly drawn) [I-1034, Ac-PL3-Asp-Npg-B5-Asp-Asp-Ala-Ala-Phe-Phe-PyrS2-2C1F-BztA-dThr-NH2]	0.027	2.71	12 (≈ 23.4 µg/mL)	11.9	9.5	4						
CC(=O)N1CCC[C@]12CC=CCCCC1(CCCC=CCCCOC(=O)N3CC[C@@](C(=O)N[C@@H](Cc4ccccc4Cl)C(=O)N[C@@H](Cc4csc5ccccc45)C(=O)N[C@@H](C(N)=O)[C@H](C)O)(C3)NC(=O)[C@H](CC(C)C)NC(=O)[C@H](Cc3ccccc3)NC(=O)[C@H](C)NC(=O)[C@H](C)NC(=O)[C@H](CC(=O)O)NC(=O)[C@H](CC(=O)O)NC1=O)NC(=O)[C@H](CC(C)(C)C)NC(=O)[C@H](CC(=O)O)NC2=O (stereo partly drawn) [I-1035, Ac-PL3-Asp-Npg-B5-Asp-Asp-Ala-Ala-Phe-Leu-PyrS2-2C1F-BztA-dThr-NH2]	0.021	2.63	28 (≈ 53.7 µg/mL)	> 20	10.2							
CC(=O)N1CCC[C@]12CC=CCCCC1(CCCC=CCCCOC(=O)N3CC[C@@](C(=O)N[C@@H](Cc4ccccc4Cl)C(=O)N[C@@H](Cc4csc5ccccc45)C(=O)N[C@@H](CO)C(N)=O)(C3)NC(=O)[C@H](CO)NC(=O)[C@H](Cc3ccccc3)NC(=O)[C@H](C)NC(=O)[C@H](C)NC(=O)[C@H](CC(=O)O)NC(=O)[C@H](CC(=O)O)NC1=O)NC(=O)[C@H](Cc1ccccc1)NC(=O)[C@H](CC(=O)O)NC2=O (stereo partly drawn) [I-1051, Ac-PL3-Asp-Phe-B5-Asp-Asp-Ala-Ala-Phe-Ser-PyrS2-2C1F-BztA-Ser-NH2]	0.014	2.23	48 (≈ 91.1 µg/mL)	> 20	> 20		20.2% and 21.7% and 24.7%	−1.7% and −3.4% and 0.0%	−12.2% and −5.2% and −3.8%	−12.5% and −11.1% and −13.2%	3.9% and 5.0% and −0.5%	−4.1% and −5.0% and −11.4%
CCNC(=O)[C@H](CCC(N)=O)NC(=O)[C@H](Cc1csc2ccccc12)NC(=O)[C@H](Cc1ccccc1Cl)NC(=O)[C@]12CCN(C1)C(=O)OCCCC=CCCCC1(CCCC=CC[C@]3(CCCN3C(C)=O)C(=O)N[C@@H](CC(=O)O)C(=O)N[C@@H](CC(C)(C)C)C(=O)N1)C(=O)N[C@@H](CC(=O)O)C(=O)N[C@@H](CC(=O)O)C(=O)N[C@@H](C)C(=O)N[C@@H](C)C(=O)N[C@@H](Cc1ccccc1)C(=O)N[C@@H](CC(N)=O)C(=O)N2 (stereo partly drawn) [I-1079, Ac-PL3-Asp-Npg-B5-Asp-Asp-Ala-Ala-Phe-Asn-PyrS2-2C1F-BztA-Gln-NHEt]	0.005	2.5	45 (≈ 88.9 µg/mL)	14.5	19.7		55.6% and 58.1% and 54.7%	1.4% and 6.9% and 6.8%	1.4% and −0.6% and 2.6%	−25.7% and −0.8% and 5.1%	34.2% and 39.4% and 42.0%	7.4% and 16.0% and 26.5%

More lines, main results first:

IC50 [1] [µM]	chromatographic logD (CHI Log D procedure)	Solubility (Solubility in PBS) [µM]	IC50 [2, 4] [µM]	IC50 [3] [µM]	IC50 [2, 5] [µM]	Structure (SMILES)	DLD1 TCF c2 BrightGlo % Inhibition [2, 6]	DLD1 TCF c2 BrightGlo % Inhibition ([2]; 0.625 µM)	DLD1 TCF c2 BrightGlo % Inhibition ([2]; 1.25 µM)	DLD1 TCF c2 BrightGlo % Inhibition ([2]; 2.5 µM)	DLD1 TCF c2 BrightGlo % Inhibition ([2]; 10 µM)	DLD1 TCF c2 BrightGlo % Inhibition [2, 7]
0.005	2.32	43 (≈ 83.7 µg/mL)	20	17.6	14.5	CC(=O)N1CCC[C@]12CC=CCCCC1(CCCC=CCCCOC(=O)N3CC[C@@](C(=O)N[C@@H](Cc4ccccc4Cl)C(=O)N[C@@H](Cc4csc5ccccc45)C(=O)N[C@@H](CCC(N)=O)C(N)=O)(C3)NC(=O)[C@H](CO)NC(=O)[C@H](Cc3ccccc3)NC(=O)[C@H](C)NC(=O)[C@H](C)NC(=O)[C@H](CC(=O)O)NC(=O)[C@H](CC(=O)O)NC1=O)NC(=O)[C@H](CC1CCCCC1)NC(=O)[C@H](CC(=O)O)NC2=O (stereo partly drawn) [I-1044, Ac-PL3-Asp-Cha-B5-Asp-Asp-Ala-Ala-Phe-Ser-PyrS2-2C1F-BztA-Gln-NH2]						
0.005	2.52	42 (≈ 80.6 µg/mL)	10.5	8.8		CC(=O)N1CCC[C@]12CC=CCCCC1(CCCC=CCCCOC(=O)N3CC[C@@](C(=O)N[C@@H](Cc4ccccc4Cl)C(=O)N[C@@H](Cc4csc5ccccc45)C(=O)N[C@@H](CO)C(N)=O)(C3)NC(=O)[C@H]([C@@H](C)O)NC(=O)[C@H](Cc3ccccc3)NC(=O)[C@H](C)NC(=O)[C@H](C)NC(=O)[C@H](CC(=O)O)NC(=O)[C@H](CC(=O)O)NC1=O)NC(=O)[C@H](CC1CCCCC1)NC(=O)[C@H](CC(=O)O)NC2=O (stereo partly drawn) [I-1048, Ac-PL3-Asp-Cha-B5-Asp-Asp-Ala-Ala-Phe-Thr-PyrS2-2C1F-BztA-Ser-NH2]						
0.005	2.45	43 (≈ 81.9 µg/mL)	11.2	24.8		CC(=O)N1CCC[C@]12CC=CCCCC1(CCCC=CCCCOC(=O)N3CC[C@@](C(=O)N[C@@H](Cc4ccccc4Cl)C(=O)N[C@@H](Cc4csc5ccccc45)C(=O)N[C@@H](CO)C(N)=O)(C3)NC(=O)[C@H](CO)NC(=O)[C@H](Cc3ccccc3)NC(=O)[C@H](C)NC(=O)[C@H](C)NC(=O)[C@H](CC(=O)O)NC(=O)[C@H](CC(=O)O)NC1=O)NC(=O)[C@H](CC1CCCCC1)NC(=O)[C@H](CC(=O)O)NC2=O (stereo partly drawn) [I-1050, Ac-PL3-Asp-Cha-B5-Asp-Asp-Ala-Ala-Phe-Ser-PyrS2-2C1F-BztA-Ser-NH2]	61.5% and 59.8% and 58.7%	13.7% and 5.5% and 6.1%	6.8% and −0.9% and −4.5%	6.2% and 1.9% and −2.2%	50.8% and 46.4% and 39.4%	25.4% and 24.7% and 12.9%
